Source: patent US20070128217A1 (priority 2003, published 2007)

Experiments:
[1] = tested on: antibodies in sera from SARS patients (sera 1a, 1b, 2, 6, 37, 62, London, SARS-yellow, SARS-green); format: binding, human; parameters: Binding of serum 6 to linear peptides of protein X1 of SARS-CoV Urbani / Binding of serum 37 to linear peptides of protein X1 of SARS-CoV Urbani / Binding of serum 6 to looped/cyclic peptide (PEPSCAN-ELISA) / Binding of serum 37 to looped/cyclic peptide (PEPSCAN-ELISA) / Binding of serum 37 to looped/cyclic peptides of protein X1 of SARS-CoV Urbani / Binding of serum 6 to linear peptides of protein X2 / Binding of serum 37 to linear peptides of protein X2 / Binding of serum 37 to looped/cyclic peptides of protein X2 of SARS-CoV Urbani / Binding of serum 6 to linear peptides of protein M of SARS-CoV Urbani / Binding of serum 37 to linear peptides of protein M of SARS-CoV Urbani / Binding of serum 6 to looped/cyclic peptides of protein M of SARS-CoV Urbani / Binding of serum 37 to looped/cyclic peptides of protein M of SARS-CoV Urbani / Binding of serum 6 to linear peptides of protein X3 of SARS-CoV Urbani / Binding of serum 37 to linear peptides of protein X3 of SARS-CoV Urbani / Binding of serum 37 to looped/cyclic peptides of protein X3 of SARS-CoV Urbani / Binding of serum 6 to linear peptides of protein X4 of SARS-CoV Urbani / Binding of serum 37 to linear peptides of protein X4 of SARS-CoV Urbani / Binding of serum 37 to looped/cyclic peptides of protein X4 of SARS-CoV Urbani / Binding of serum 6 to linear peptides of protein X5 of SARS-CoV Urbani / Binding of serum 37 to linear peptides of protein X5 of SARS-CoV Urbani / Binding of serum 37 to looped/cyclic peptides of protein X5 of SARS-CoV Urbani / Binding of serum 6 to linear peptides of protein N of SARS-CoV Urbani / Binding of serum 37 to linear peptides of protein N of SARS-CoV Urbani / Binding of serum 6 to linear peptide (PEPSCAN-ELISA) / Binding of serum 1a to looped/cyclic peptides of protein N of SARS-CoV Urbani / Binding of serum 1b to looped/cyclic peptides of protein N of SARS-CoV Urbani / Binding of serum 2 to looped/cyclic peptides of protein N of SARS-CoV Urbani / Binding of serum 6 to looped/cyclic peptides of protein N of SARS-CoV Urbani / Binding of serum 37 to looped/cyclic peptides of protein N of SARS-CoV Urbani / Binding of serum 62 to looped/cyclic peptides of protein N of SARS-CoV Urbani / Binding of serum London to looped/cyclic peptides of protein N of SARS-CoV Urbani / Binding of serum SARS-green to looped/cyclic peptides of protein N of SARS-CoV Urbani: unit not given here
[2] = tested on: rabbit serum obtained by immunizing a rabbit with the SARS-CoV strain Frankfurt 1; format: binding; parameters: Binding of a rabbit serum to linear peptides / Binding of a rabbit serum to looped peptides / Rabbit serum linear peptides / Rabbit serum looped peptides / Binding of a rabbit serum to linear peptides of protein N of SARS-CoV Urbani (Rabbit serum linear peptides) / Binding of a rabbit serum to looped/cyclic peptides of protein N of SARS-CoV Urbani (Rabbit serum looped peptides): unit not given here
[3] = tested on: control sera (pooled serum of ten healthy LUMC hospital workers; commercial negative donor pooled serum from the Dutch bloodbank); format: binding, human; parameters: Binding of Control serum LUMC to linear peptides / Binding of Control serum Blood-bank to linear peptides / Binding of Control serum LUMC to looped peptides / Binding of Control Serum Blood-Bank to Looped peptides / Binding of Control serum LUMC to linear peptides of the protein M of SARS-CoV Urbani / Binding of Control serum Blood-bank to linear peptides of the protein M of SARS-CoV Urbani / Binding of Control serum LUMC to looped peptides of the protein M of SARS-CoV Urbani / Binding of Control Serum Blood-Bank to Looped peptides of the protein M of SARS-CoV Urbani: unit not given here

With LFLIVAALVFLILCF the “Binding of serum 1a to linear peptides of protein X4 of SARS-CoV Urbani” value [1] was 0.6, the “Binding of serum 1a to looped/cyclic peptides of protein X4 of SARS-CoV Urbani” value [1] was 0.8 and the “Binding of serum 1b to linear peptides of protein X4 of SARS-CoV Urbani” value [1] was 0.5. The “Binding of serum 1b to looped/cyclic peptides of protein X4 of SARS-CoV Urbani” value [1] was 0.4, the “Binding of serum 2 to linear peptides of protein X4 of SARS-CoV Urbani” value [1] was 0.3 and the “Binding of serum 2 to looped/cyclic peptides of protein X4 of SARS-CoV Urbani” value [1] was 0.7. For the same sequence, the “Binding of serum 6 to linear peptides of protein X4 of SARS-CoV Urbani” value [1] was 0.4, the “Binding of serum 6 to looped/cyclic peptides of protein X4 of SARS-CoV Urbani” value [1] was 0.3 and the “Binding of serum 37 to linear peptides of protein X4 of SARS-CoV Urbani” value [1] was 0.6. The “Binding of serum 37 to looped/cyclic peptides of protein X4 of SARS-CoV Urbani” value [1] was 0.5, the “Binding of serum 62 to linear peptides of protein X4 of SARS-CoV Urbani” value [1] was 0.6 and the “Binding of serum 62 to looped/cyclic peptides of protein X4 of SARS-CoV Urbani” value [1] was 0.5. The “Binding of serum London to linear peptides of protein X4 of SARS-CoV Urbani” value [1] was 0.7, the “Binding of serum London to looped/cyclic peptides of protein X4 of SARS-CoV Urbani” value [1] was 0.2 and the “Binding of serum SARS-green to linear peptides of protein X4 of SARS-CoV Urbani” value [1] was 0.6. The “Binding of serum SARS-green to looped/cyclic peptides of protein X4 of SARS-CoV Urbani” value [1] was 0.4, the “Binding of serum SARS-yellow to linear peptides of protein X4 of SARS-CoV Urbani” value [1] was 0.7 and the “Binding of serum SARS-yellow to looped/cyclic peptides of protein X4 of SARS-CoV Urbani” value [1] was 0.5. The “Rabbit serum linear peptides” value [2] was 0.3, the “Rabbit serum looped peptides” value [2] was 0.4 and the “Binding of Control Serum Blood-Bank to Looped peptides” value [3] was 0.7. The “Binding of Control serum Blood-bank to linear peptides” value [3] was 0.5, the “Binding of Control serum LUMC to linear peptides” value [3] was 0.4 and the “Binding of Control serum LUMC to looped peptides” value [3] was 0.4.
In the case of LFLTLIVFTSCELYH, the “Binding of serum 1a to linear peptides of protein X4 of SARS-CoV Urbani” value [1] is reported as 0.7, the “Binding of serum 1a to looped/cyclic peptides of protein X4 of SARS-CoV Urbani” value [1] is reported as 0.9 and the “Binding of serum 1b to linear peptides of protein X4 of SARS-CoV Urbani” value [1] is reported as 0.7. The “Binding of serum 1b to looped/cyclic peptides of protein X4 of SARS-CoV Urbani” value [1] was 0.8, the “Binding of serum 2 to linear peptides of protein X4 of SARS-CoV Urbani” value [1] was 0.5 and the “Binding of serum 2 to looped/cyclic peptides of protein X4 of SARS-CoV Urbani” value [1] was 0.8. The “Binding of serum 6 to linear peptides of protein X4 of SARS-CoV Urbani” value [1] was 0.5, the “Binding of serum 6 to looped/cyclic peptides of protein X4 of SARS-CoV Urbani” value [1] was 0.7 and the “Binding of serum 37 to linear peptides of protein X4 of SARS-CoV Urbani” value [1] was 0.7. The “Binding of serum 37 to looped/cyclic peptides of protein X4 of SARS-CoV Urbani” value [1] was 0.9, the “Binding of serum 62 to linear peptides of protein X4 of SARS-CoV Urbani” value [1] was 0.7 and the “Binding of serum 62 to looped/cyclic peptides of protein X4 of SARS-CoV Urbani” value [1] was 0.9. The “Binding of serum London to linear peptides of protein X4 of SARS-CoV Urbani” value [1] was 0.6, the “Binding of serum London to looped/cyclic peptides of protein X4 of SARS-CoV Urbani” value [1] was 0.3 and the “Binding of serum SARS-green to linear peptides of protein X4 of SARS-CoV Urbani” value [1] was 0.7. For the same sequence, the “Binding of serum SARS-green to looped/cyclic peptides of protein X4 of SARS-CoV Urbani” value [1] was 0.7, the “Binding of serum SARS-yellow to linear peptides of protein X4 of SARS-CoV Urbani” value [1] was 0.6 and the “Binding of serum SARS-yellow to looped/cyclic peptides of protein X4 of SARS-CoV Urbani” value [1] was 0.6. For the same sequence, the “Rabbit serum linear peptides” value [2] was 0.7, the “Rabbit serum looped peptides” value [2] was 0.4 and the “Binding of Control Serum Blood-Bank to Looped peptides” value [3] was 0.9. The “Binding of Control serum Blood-bank to linear peptides” value [3] was 0.7, the “Binding of Control serum LUMC to linear peptides” value [3] was 0.7 and the “Binding of Control serum LUMC to looped peptides” value [3] was 0.9.
In the case of LGKVLPFHRWHTMVQ, the “Binding of serum 1a to linear peptides of protein X5 of SARS-CoV Urbani” value [1] is reported as 0.7, the “Binding of serum 1a to looped/cyclic peptides of protein X5 of SARS-CoV Urbani” value [1] is reported as 0.6 and the “Binding of serum 1b to linear peptides of protein X5 of SARS-CoV Urbani” value [1] is reported as 0.4. For the same sequence, the “Binding of serum 1b to looped/cyclic peptides of protein X5 of SARS-CoV Urbani” value [1] was 0.3, the “Binding of serum 2 to linear peptides of protein X5 of SARS-CoV Urbani” value [1] was 0.6 and the “Binding of serum 2 to looped/cyclic peptides of protein X5 of SARS-CoV Urbani” value [1] was 0.2. For the same sequence, the “Binding of serum 6 to linear peptides of protein X5 of SARS-CoV Urbani” value [1] was 0.5, the “Binding of serum 6 to looped/cyclic peptides of protein X5 of SARS-CoV Urbani” value [1] was 0.3 and the “Binding of serum 37 to linear peptides of protein X5 of SARS-CoV Urbani” value [1] was 0.6. The “Binding of serum 37 to looped/cyclic peptides of protein X5 of SARS-CoV Urbani” value [1] was 0.5, the “Binding of serum 62 to linear peptides of protein X5 of SARS-CoV Urbani” value [1] was 0.6 and the “Binding of serum 62 to looped/cyclic peptides of protein X5 of SARS-CoV Urbani” value [1] was 0.3. The “Binding of serum London to linear peptides of protein X5 of SARS-CoV Urbani” value [1] was 0.6, the “Binding of serum London to looped/cyclic peptides of protein X5 of SARS-CoV Urbani” value [1] was 0.2 and the “Binding of serum SARS-green to linear peptides of protein X5 of SARS-CoV Urbani” value [1] was 0.4. For the same sequence, the “Binding of serum SARS-green to looped/cyclic peptides of protein X5 of SARS-CoV Urbani” value [1] was 0.2, the “Binding of serum SARS-yellow to linear peptides of protein X5 of SARS-CoV Urbani” value [1] was 0.2 and the “Binding of serum SARS-yellow to looped/cyclic peptides of protein X5 of SARS-CoV Urbani” value [1] was 0.2. For the same sequence, the “Rabbit serum linear peptides” value [2] was 0.5, the “Rabbit serum looped peptides” value [2] was 0.3 and the “Binding of Control Serum Blood-Bank to Looped peptides” value [3] was 0.4. The “Binding of Control serum Blood-bank to linear peptides” value [3] was 0.8, the “Binding of Control serum LUMC to linear peptides” value [3] was 0.5 and the “Binding of Control serum LUMC to looped peptides” value [3] was 0.4.
LHKLLQTLVLKMLHS was tested, and the “Binding of serum 1a to linear peptides of protein X2” value [1] was 0.6, the “Binding of serum 1a to looped/cyclic peptides of protein X2 of SARS-CoV Urbani” value [1] was 0.6 and the “Binding of serum 1b to linear peptides of protein X2” value [1] was 0.0. The “Binding of serum 1b to looped/cyclic peptides of protein X2 of SARS-CoV Urbani” value [1] was 0.5, the “Binding of serum 2 to linear peptides of protein X2” value [1] was 0.4 and the “Binding of serum 2 to looped/cyclic peptides of protein X2 of SARS-CoV Urbani” value [1] was 0.4. The “Binding of serum 6 to linear peptides of protein X2” value [1] was 0.3, the “Binding of serum 6 to looped/cyclic peptides of protein X2 of SARS-CoV Urbani” value [1] was 0.6 and the “Binding of serum 37 to linear peptides of protein X2” value [1] was 0.4. For the same sequence, the “Binding of serum 37 to looped/cyclic peptides of protein X2 of SARS-CoV Urbani” value [1] was 0.4, the “Binding of serum 62 to linear peptides of protein X2” value [1] was 0.5 and the “Binding of serum 62 to looped/cyclic peptides of protein X2 of SARS-CoV Urbani” value [1] was 0.6. The “Binding of serum London to linear peptides of protein X2” value [1] was 0.4, the “Binding of serum London to looped/cyclic peptides of protein X2 of SARS-CoV Urbani” value [1] was 1.0 and the “Binding of serum SARS-green to linear peptides of protein X2” value [1] was 0.6. For the same sequence, the “Binding of serum SARS-green to looped/cyclic peptides of protein X2 of SARS-CoV Urbani” value [1] was 0.4, the “Binding of serum SARS-yellow to linear peptides of protein X2” value [1] was 0.3 and the “Binding of serum SARS-yellow to looped/cyclic peptides of protein X2 of SARS-CoV Urbani” value [1] was 0.7. The “Binding of a rabbit serum to linear peptides” value [2] was 0.2, the “Binding of a rabbit serum to looped peptides” value [2] was 0.4 and the “Binding of Control Serum Blood-Bank to Looped peptides” value [3] was 0.8. For the same sequence, the “Binding of Control serum Blood-bank to linear peptides” value [3] was 0.5, the “Binding of Control serum LUMC to linear peptides” value [3] was 0.3 and the “Binding of Control serum LUMC to looped peptides” value [3] was 0.7.
